Experiment [1] has as its system RABBIT PLATELETS
The experiment can be described thus: Aggregation of washed platelets induced by PAF (turbidimetric, lumiaggregometer). Type of experiment: cell-based, rabbits (male, albino, New Zealand). Particulars: Oryctolagus cuniculus, Platelet; compound 10 µM; 1-PAF 1.92 nM; pre-incubation 5 minutes; average of six experiments in triplicate. How it is done:
(§1) • 1. STUDIES ON WASHED PLATELETS • 1.1.Aggregation The suspensions of washed platelets were obtained from the blood of rabbits (male, albino, New Zealand) anticoagulated with a citric acid-dextrose solution in the proportion 1:6 (v:v.) The platelet rich plasma (PRP) was obtained by centrifuging the blood samples at 100xg for 10 minutes and the platelet suspensions by centrifuging the PRP at 1,800xg for 15 minutes at 4° C. The pellet thus obtained was washed twice with Tyrode buffer containing citric acid, PGE₁ and apirase, pH 6.5. The platelets thus washed were finally resuspended in Hepes-Tyrode buffer, pH 7.35, supplemented with bovine albumin serum at 0.35 %; Ca⁺⁺2 mM. The final concentration of platelets was adjusted to 300,000 platelets/µl. The aggregation was measured turbidimetrically using a lumiaggregometer (Chrono-Log Co., Haventon, PA, USA) at 37° C under stirring at 1,100 r.p.m. The study was also carried out on aliquots of PRP pre-incubated with the compounds under study at 37° C for 5 minutes. The concentration of the antagonists were in all cases 10 µM and aggregation was induced by adding L-PAF diluted in 5 µl of Hepes buffer/albumin, with a final concentration 1.9 x 10⁻⁹M. • 1.2. Release reaction The platelet secretion was measured in the presence of luciferin/luciferase with ATP release in accord with the method described by Feinman et al. (1977.) • 2. STUDIES ON ANESTHETIZED RATS Hypotension induced by an intravenous injection of PAF-aceter. Male Sprague-Dawley rats anesthetized with pentobarbital (50 mg/kg., intraperitoneally) were used.

Experiment [2] concerns RABBIT PLATELETS
The experiment can be described thus: Platelet release reaction (ATP release, luciferin/luciferase) induced by PAF. Particulars: Oryctolagus cuniculus, read-out: % […] REACTION, compound 10 µM, 1-PAF 1.92 nM, pre-incubation 5 minutes, average of six experiments in triplicate. Type of experiment: cell-based, rabbits (male, albino, New Zealand). On the procedure: as §1

The structures appear in SMILES notation.

`COC(=O)C1=C(C)NC(C)=C(C(=O)OCCSc2ccccc2)C1C` (stereo not shown) [Example 12, 2-(phenylthio)ethyl-2,6-dimethyl 4-methyl-5-methoxycarbonyl-1,4-dihydropyridin-3-carboxylate]: the inhibition at 10 µM in experiment [1] and in experiment [2] was 100% in each case.
Take `CCCC1C(C(=O)OCC)=C(C)NC(C)=C1C(=O)OCCSC` (stereo not shown) [Example 7, 2-(methylthio)ethyl-2,6-dimethyl-5-ethoxycarbonyl-4-n-propyl-1,4-dihydropyridin-3-carboxylate]: the results for the inhibition at 10 µM in experiment [1] and in experiment [2] were 14% and 50%, respectively.
In the case of `CCCC1C(C(=O)OCC)=C(C)NC(C)=C1C(=O)OCCSCC` (stereo not shown) [Example 8, 2-(ethylthio)ethyl-2,6-dimethyl-5-ethoxycarbonyl-4-n-propyl-1,4-dihydropyridin-3-carboxylate], the results for the inhibition at 10 µM in experiment [1] and in experiment [2] were 30% and 69%, respectively.
In the case of `CCOC(=O)C1=C(C)NC(C)=C(C(=O)OCCSc2ccccc2)C1C` (stereo not shown) [Example 9, 2-(phenylthio)ethyl-2,6-dimethyl-5-ethoxycarbonyl-4-methyl-1,4-dihydropyridin-3-carboxylate], the inhibition at 10 µM in experiment [1] and in experiment [2] was 100% throughout.
Turning to `CCOC(=O)C1=C(C)NC(C)=C(C(=O)OCCSC)C1CC` (stereo not shown) [Example 6, 2-(methylthio)ethyl-2,6-dimethyl-4-ethyl-5-ethoxycarbonyl-1,4-dihydropyridin-3-carboxylate], the inhibition at 10 µM in experiment [1] amounted to 32%; in experiment [2], 89%.
With `CC1=C(C(=O)OCCSc2ccccc2)C(C)C(C(=O)OC(C)C)=C(C)N1` (stereo not shown) [Example 11, 2-(phenylthio)ethyl-2,6-dimethyl-5-isopropoxycarbonyl-4-methyl-1,4-dihydropyridin-3-carboxylate], the inhibition at 10 µM in experiment [1] came to 33%; in experiment [2], 89%.
As to `COC(=O)C1=C(C)NC(C)=C(C(=O)OCCSC)C1C` (stereo not shown) [Example 2, 2-(methylthio)ethyl-2,6-dimethyl-4-methyl-5-methoxycarbonyl-1,4-dihydropyridin-3-carboxylate], the inhibition at 10 µM in experiment [1] turned out to be 26%; in experiment [2], 75%.
Consider `CCOC(=O)C1=C(C)NC(C)=C(C(=O)OCCSCC)C1C` (stereo not shown) [Example 4, 2-(ethylthio)ethyl-2,6-dimethyl-5-ethoxycarbonyl-4-methyl-1,4-dihydropyridin-3-carboxylate], for which the inhibition at 10 µM in experiment [1] was 32%; in experiment [2] it was 89%.
In the same order, the values of `CC1=C(C(=O)OCCSc2ccccc2)C(C)C(C(=O)OCC2CCCO2)=C(C)N1` (stereo not shown) [Example 10, 2-(phenylthio)ethyl-2,6-dimethyl-4-methyl 5-(2-tetrahydrofurfuryloxycarbonyl)-1,4-dihydropyridin-3-carboxylate] are 11% and 49%.
For `CCSCCOC(=O)C1=C(C)NC(C)=C(C(=O)OC)C1C` (stereo not shown) [Example 1, 2-(ethylthio)ethyl-2,6-dimethyl-4-methyl-5-methoxycarbonyl-1,4-dihydropyridin-3-carboxylate] the same measures were 44% and 96%.
On to `CCOC(=O)C1=C(C)NC(C)=C(C(=O)OCCSC)C1C` (stereo not shown) [Example 3, 2,6-(methylthio)ethyl-2,6 dimethyl-5-ethoxycarbonyl-4-methyl-1,4-dihydropyridin-3-carboxylate], for which the inhibition at 10 µM was found to be 21% in experiment [1] and 78% in experiment [2].

Values taken from EP0325187B1, “4-alkyl-1, 4-dihydropyridines with PAF-antagonist activity” (ALTER, S.A., priority 1988, dated 1989).
